The record followed here is patent US11732256B2, “Multivalent glycopeptides that tightly bind to target proteins” (Brandeis University, priority 2013, dated 2023).

In the assay the test system is HIV broadly neutralizing antibody 2G12. The experiment in a line: Radioactive 2G12-glycopeptide binding assay with protein G magnetic beads (binding curve and KD determination). The protocol: The sequences were obtained by cloning non-selected library DNA. […] FIG. 9B is an SDS-PAGE analysis of the click reaction of the non-selected peptides. Both peptides were transcribed and translated from PCR-amplified DNA in Pure System that contains 0.02 mg/mL T7 RNA polymerase and additional 1 mM each NTP. The peptides were labeled with 3H-histidine and the bands were visualized by fluorography.
For round 10 winners, 0.12-0.2 nM radioactive glycopeptides were incubated with 0, 0.25, 0.5, 1, 2, 4, 8, 16, 32 or 64 nM 2G12 in 40 μL of selection buffer at room temperature for 1 h. Then, the solution was added to 0.12 mg of pre-equilibrated Dynabeads Protein G and tumbled at room temperature for 30 min. The supernatant was removed and the beads were washed with 3×40 μL of selection buffer. The radioactivities of the supernatant and wash solutions were measured by liquid scintillation counting as unbound fractions. […] The beads were resuspended in 40 μL of selection buffer, heated at 70° C. for 30 min to elute the bound glycopeptides, chilled on ice for 5 min, and tumbled at room temperature for 10 min. The supernatant was removed, and the beads were washed with 40 μL of selection buffer and resuspended in 40 μL of selection buffer. The radioactivities of these solutions and suspensions were measured by liquid scintillation counting separately and the values were combined as apparent bound fractions. […] All experiments were done at least in triplicate. KDs were calculated as described in the footnote of Table 4 (below).

Where [1] appears, read: Table 6 mutants/truncations, radioactive binding assay.

pKd: −log10 of the molar value. *1 amine or outer side, *2 acyl side, *3 side chain or, on linkers, in order; H or OH if unused. Where a SMILES comes first, the peptide text is derived from it. [ ]: non-standard residue; d: D form. The star is where a group is joined. X1 = O=C([C@H](CCc1cn(C2CCC(OC3O[C@H](CO[C@H]4O[C@H](CO[C@H]5O[C@H](CO)[C@@H](O)[C@H](O)[C@@H]5O[C@H]5O[C@H](CO)[C@@H](O)[C@H](O)[C@@H]5O)[C@@H](O)[C@H](O[C@H]5O[C@H](CO)[C@@H](O)[C@H](O)[C@@H]5O[C@H]5O[C@H](CO)[C@@H](O)[C@H](O)[C@@H]5O)[C@@H]4O)[C@@H](O)[C@H](O[C@H]4O[C@H](CO)[C@@H](O)[C@H](O)[C@@H]4O[C@H]4O[C@H](CO)[C@@H](O)[C@H](O)[C@@H]4O[C@H]4O[C@H](CO)[C@@H](O)[C@H](O)[C@@H]4O)[C@@H]3O)CC2)nn1)N[*:1])[*:2]; For = O=C* Bounds are passed on as bounds.

Regarding `CC[C@H](C)[C@H](NC(=O)[C@H](CCCNC(=N)N)NC(=O)[C@H](CCCNC(=N)N)NC(=O)CNC(=O)[C@H](CC(=O)O)NC(=O)[C@H](CC(N)=O)NC(=O)[C@H](CC(C)C)NC(=O)[C@@H](NC(=O)[C@H](CCc1cn(C2CCC(OC3O[C@H](CO[C@H]4O[C@H](CO[C@H]5O[C@H](CO)[C@@H](O)[C@H](O)[C@@H]5O[C@H]5O[C@H](CO)[C@@H](O)[C@H](O)[C@@H]5O)[C@@H](O)[C@H](O[C@H]5O[C@H](CO)[C@@H](O)[C@H](O)[C@@H]5O[C@H]5O[C@H](CO)[C@@H](O)[C@H](O)[C@@H]5O)[C@@H]4O)[C@@H](O)[C@H](O[C@H]4O[C@H](CO)[C@@H](O)[C@H](O)[C@@H]4O[C@H]4O[C@H](CO)[C@@H](O)[C@H](O)[C@@H]4O[C@H]4O[C@H](CO)[C@@H](O)[C@H](O)[C@@H]4O)[C@@H]3O)CC2)nn1)NC=O)C(C)C)C(=O)N[C@H](C(=O)N[C@@H](CCC(N)=O)C(=O)N[C@@H](CCc1cn(C2CCC(OC3O[C@H](CO[C@H]4O[C@H](CO[C@H]5O[C@H](CO)[C@@H](O)[C@H](O)[C@@H]5O[C@H]5O[C@H](CO)[C@@H](O)[C@H](O)[C@@H]5O)[C@@H](O)[C@H](O[C@H]5O[C@H](CO)[C@@H](O)[C@H](O)[C@@H]5O[C@H]5O[C@H](CO)[C@@H](O)[C@H](O)[C@@H]5O)[C@@H]4O)[C@@H](O)[C@H](O[C@H]4O[C@H](CO)[C@@H](O)[C@H](O)[C@@H]4O[C@H]4O[C@H](CO)[C@@H](O)[C@H](O)[C@@H]4O[C@H]4O[C@H](CO)[C@@H](O)[C@H](O)[C@@H]4O)[C@@H]3O)CC2)nn1)C(=O)N[C@@H](CO)C(=O)N[C@@H](CS)C(=O)N[C@@H](CCC(=O)O)C(=O)N[C@@H](CC(C)C)C(=O)N1CCC[C@H]1C(=O)N[C@@H](CCc1cn(C2CCC(OC3O[C@H](CO[C@H]4O[C@H](CO[C@H]5O[C@H](CO)[C@@H](O)[C@H](O)[C@@H]5O[C@H]5O[C@H](CO)[C@@H](O)[C@H](O)[C@@H]5O)[C@@H](O)[C@H](O[C@H]5O[C@H](CO)[C@@H](O)[C@H](O)[C@@H]5O[C@H]5O[C@H](CO)[C@@H](O)[C@H](O)[C@@H]5O)[C@@H]4O)[C@@H](O)[C@H](O[C@H]4O[C@H](CO)[C@@H](O)[C@H](O)[C@@H]4O[C@H]4O[C@H](CO)[C@@H](O)[C@H](O)[C@@H]4O[C@H]4O[C@H](CO)[C@@H](O)[C@H](O)[C@@H]4O)[C@@H]3O)CC2)nn1)C(=O)N[C@H](C(=O)N[C@@H](CCCNC(=N)N)C(=O)N[C@@H](CCCNC(=N)N)C(=O)N[C@@H](CO)C(=O)NCC(=O)N[C@@H](CO)C(=O)NCC(=O)N[C@@H](CO)C(=O)N[C@@H](CC(C)C)C(=O)NCC(=O)N[C@@H](Cc1c[nH]cn1)C(=O)N[C@@H](Cc1c[nH]cn1)C(=O)N[C@@H](Cc1c[nH]cn1)C(=O)N[C@@H](Cc1c[nH]cn1)C(=O)N[C@@H](Cc1c[nH]cn1)C(=O)N[C@@H](Cc1c[nH]cn1)C(=O)N[C@@H](CCCNC(=N)N)C(=O)N[C@@H](CC(=O)O)C(=O)N[C@@H](Cc1ccc(O)cc1)C(=O)N[C@@H](CCCCN)C(=O)N[C@@H](CC(=O)O)C(=O)N[C@@H](CC(=O)O)C(=O)N[C@@H](CC(=O)O)C(=O)N[C@@H](CC(=O)O)C(=O)N[C@@H](CCCCN)C(=O)O)C(C)C)C(C)C` (some centres unmarked) [Clone 10F5-Δ11, XVLNDGRRIVQXSCELPXVRRS], under setting [1], the “Fmax [%]” value was found to be 17% and the pKd is less than 6.70.
In the case of `CC[C@H](C)[C@H](NC(=O)[C@H](CO)NC(=O)[C@H](CCCNC(=N)N)NC(=O)[C@H](CCc1cn(C2CCC(OC3O[C@H](CO[C@H]4O[C@H](CO[C@H]5O[C@H](CO)[C@@H](O)[C@H](O)[C@@H]5O[C@H]5O[C@H](CO)[C@@H](O)[C@H](O)[C@@H]5O)[C@@H](O)[C@H](O[C@H]5O[C@H](CO)[C@@H](O)[C@H](O)[C@@H]5O[C@H]5O[C@H](CO)[C@@H](O)[C@H](O)[C@@H]5O)[C@@H]4O)[C@@H](O)[C@H](O[C@H]4O[C@H](CO)[C@@H](O)[C@H](O)[C@@H]4O[C@H]4O[C@H](CO)[C@@H](O)[C@H](O)[C@@H]4O[C@H]4O[C@H](CO)[C@@H](O)[C@H](O)[C@@H]4O)[C@@H]3O)CC2)nn1)NC=O)C(=O)N1CCC[C@H]1C(=O)N[C@@H](Cc1c[nH]c2ccccc12)C(=O)N[C@@H](Cc1ccc(O)cc1)C(=O)N[C@H](C(=O)N[C@@H](Cc1ccc(O)cc1)C(=O)N[C@@H](CCCNC(=N)N)C(=O)N[C@@H](Cc1c[nH]c2ccccc12)C(=O)N[C@@H](CC(C)C)C(=O)N1CCC[C@H]1C(=O)N[C@@H](CC(N)=O)C(=O)NCC(=O)N[C@@H](CO)C(=O)NCC(=O)N[C@@H](CO)C(=O)N[C@@H](CC(C)C)C(=O)NCC(=O)N[C@@H](Cc1c[nH]cn1)C(=O)N[C@@H](Cc1c[nH]cn1)C(=O)N[C@@H](Cc1c[nH]cn1)C(=O)N[C@@H](Cc1c[nH]cn1)C(=O)N[C@@H](Cc1c[nH]cn1)C(=O)N[C@@H](Cc1c[nH]cn1)C(=O)N[C@@H](CCCNC(=N)N)C(=O)N[C@@H](CC(=O)O)C(=O)N[C@@H](Cc1ccc(O)cc1)C(=O)N[C@@H](CCCCN)C(=O)N[C@@H](CC(=O)O)C(=O)N[C@@H](CC(=O)O)C(=O)N[C@@H](CC(=O)O)C(=O)N[C@@H](CC(=O)O)C(=O)N[C@@H](CCCCN)C(=O)O)[C@@H](C)O` (some centres unmarked) [Clone 10V1-Δ19, XRSIPWYTYRWLPN] (For-[X1]RSIPWYTYRWLPNGSGSLGHHHHHHRDYKDDDDK-OH; C-terminus assumed), the “Fmax [%]” value under setting [1] is 20%. For the same compound, the “2G12 binding after truncation” value (truncated clones) was “tight binding”.
With “For-[X1]PNCITQQDVR[X1]TSIPYTYTWPGSGSLGHHHHHHRDYKDDDDK-OH [Clone 10F3-Δ11, XPNCITQQDVRXTSIPYTYTWP]”, the “Fmax [%]” value under setting [1] came out at 32%.
For the compound “XDTLHLKQIGGXPNSITQQDVRXTSIPYTYTWP [Clone 10F3-C15S]”, under setting [1], the “Fmax [%]” value came to 63% and the pKd is 8.54.
Turning to “XYKNIPSTTXNLYSKPXATVTTLKCKLNGNRIS [Clone 12G]”, the pKd (Table 4, radiolabeled ribosomally translated glycopeptide, varied 2G12, room temperature, ± standard error of curve fit) is less than 6.89.

In general, pKd refers to the negative decadic logarithm of the Kd, by convention in mol/L.
